The NIST ThermoML archive (doi:10.1016/j.jct.2012.01.013)
Numbers after ± are expanded uncertainties.

Test: xn = mol fraction of the nth substance listed
Details: 101 kPa, Liquid; for viscosity: Falling or rolling sphere viscometry; for mass density: Vibrating tube method

CC(=O)[O-].Cn1cc[nH+]c1 [1-methylimidazolium acetate] + CCCCO
Details | mass density, 293.15 K [kg/m3] | mass density, 298.15 K [kg/m3] | mass density, 303.15 K [kg/m3] | mass density, 308.15 K [kg/m3] | mass density, 313.15 K [kg/m3] | viscosity, 293.15 K [mPa·s] | viscosity, 298.15 K [mPa·s] | viscosity, 303.15 K [mPa·s] | viscosity, 308.15 K [mPa·s] | viscosity, 313.15 K [mPa·s]
x1 = 0.0506 | 828.66 ± 0.39 | 824.7 ± 0.39 | 820.7 ± 0.39 | 816.68 ± 0.39 | 812.62 ± 0.39 | – | 2.579 ± 0.063 | 2.208 ± 0.062 | 1.956 ± 0.062 | 1.741 ± 0.061
x1 = 0.1008 | 847.12 ± 0.38 | 843.04 ± 0.38 | 838.93 ± 0.38 | 834.78 ± 0.37 | 830.61 ± 0.37 | 2.905 ± 0.064 | 2.607 ± 0.063 | 2.251 ± 0.062 | 1.997 ± 0.062 | 1.781 ± 0.061
x1 = 0.1979 | 880.83 ± 0.36 | 876.62 ± 0.36 | 872.36 ± 0.36 | 868.1 ± 0.36 | 863.78 ± 0.36 | 3.194 ± 0.065 | 2.829 ± 0.064 | 2.462 ± 0.063 | 2.182 ± 0.062 | 1.944 ± 0.062
x1 = 0.2995 | 913.82 ± 0.34 | 909.53 ± 0.34 | 905.18 ± 0.34 | 900.8 ± 0.34 | 896.49 ± 0.34 | 3.551 ± 0.066 | 3.124 ± 0.064 | 2.731 ± 0.063 | 2.419 ± 0.063 | 2.15 ± 0.062
x1 = 0.4002 | 943.73 ± 0.32 | 939.37 ± 0.32 | 934.99 ± 0.32 | 930.59 ± 0.32 | 926.17 ± 0.32 | 3.934 ± 0.067 | 3.431 ± 0.066 | 3.011 ± 0.064 | 2.661 ± 0.063 | 2.367 ± 0.063
x1 = 0.4999 | 970.97 ± 0.29 | 966.57 ± 0.29 | 962.15 ± 0.29 | 957.72 ± 0.29 | 953.27 ± 0.29 | 4.413 ± 0.069 | 3.813 ± 0.067 | 3.334 ± 0.065 | 2.922 ± 0.064 | 2.606 ± 0.063
x1 = 0.6505 | 1008.21 ± 0.28 | 1003.78 ± 0.28 | 999.34 ± 0.28 | 994.88 ± 0.28 | 990.41 ± 0.28 | 5.321 ± 0.074 | 4.556 ± 0.071 | 3.936 ± 0.068 | 3.447 ± 0.066 | 3.056 ± 0.065
x1 = 0.7977 | 1040.65 ± 0.3 | 1036.22 ± 0.29 | 1031.77 ± 0.29 | 1027.33 ± 0.29 | 1022.9 ± 0.29 | 6.49 ± 0.081 | 5.533 ± 0.076 | 4.739 ± 0.072 | 4.068 ± 0.069 | 3.538 ± 0.067
x1 = 0.9013 | 1061.34 ± 0.32 | 1056.91 ± 0.31 | 1052.46 ± 0.31 | 1048.01 ± 0.31 | 1043.57 ± 0.31 | 7.367 ± 0.087 | 6.225 ± 0.081 | 5.314 ± 0.075 | 4.553 ± 0.072 | 3.944 ± 0.069

CC(=O)[O-].Cn1cc[nH+]c1 [1-methylimidazolium acetate] + CCCO
Details | mass density, 293.15 K [kg/m3] | mass density, 298.15 K [kg/m3] | mass density, 303.15 K [kg/m3] | mass density, 308.15 K [kg/m3] | mass density, 313.15 K [kg/m3] | viscosity, 293.15 K [mPa·s] | viscosity, 298.15 K [mPa·s] | viscosity, 303.15 K [mPa·s] | viscosity, 308.15 K [mPa·s] | viscosity, 313.15 K [mPa·s]
x1 = 0.0504 | 827.73 ± 0.47 | 823.56 ± 0.47 | 819.35 ± 0.47 | 815.11 ± 0.47 | 810.83 ± 0.47 | 2.22 ± 0.062 | 1.974 ± 0.062 | 1.753 ± 0.061 | 1.566 ± 0.061 | 1.402 ± 0.061
x1 = 0.0999 | 850.08 ± 0.44 | 845.8 ± 0.44 | 841.47 ± 0.44 | 837.11 ± 0.44 | 832.72 ± 0.44 | 2.359 ± 0.063 | 2.088 ± 0.062 | 1.855 ± 0.062 | 1.656 ± 0.061 | 1.485 ± 0.061
x1 = 0.2005 | 891.09 ± 0.4 | 886.69 ± 0.4 | 882.25 ± 0.4 | 877.78 ± 0.4 | 873.27 ± 0.4 | 2.757 ± 0.064 | 2.429 ± 0.063 | 2.152 ± 0.062 | 1.918 ± 0.062 | 1.718 ± 0.061
x1 = 0.3005 | 926.35 ± 0.35 | 921.89 ± 0.36 | 917.41 ± 0.36 | 912.89 ± 0.36 | 908.35 ± 0.36 | 3.202 ± 0.065 | 2.795 ± 0.064 | 2.481 ± 0.063 | 2.206 ± 0.062 | 1.973 ± 0.062
x1 = 0.4013 | 957.27 ± 0.32 | 952.8 ± 0.32 | 948.29 ± 0.32 | 943.76 ± 0.32 | 939.2 ± 0.32 | 3.698 ± 0.066 | 3.231 ± 0.065 | 2.851 ± 0.064 | 2.517 ± 0.063 | 2.25 ± 0.062
x1 = 0.5014 | 984.26 ± 0.28 | 979.77 ± 0.28 | 975.25 ± 0.28 | 970.72 ± 0.28 | 966.17 ± 0.28 | 4.234 ± 0.069 | 3.682 ± 0.067 | 3.228 ± 0.065 | 2.852 ± 0.064 | 2.536 ± 0.063
x1 = 0.6501 | 1018.37 ± 0.27 | 1013.89 ± 0.27 | 1009.37 ± 0.27 | 1004.85 ± 0.27 | 1000.32 ± 0.27 | 5.113 ± 0.073 | 4.402 ± 0.07 | 3.835 ± 0.068 | 3.363 ± 0.066 | 2.975 ± 0.065
x1 = 0.7946 | 1046.51 ± 0.28 | 1042.04 ± 0.28 | 1037.55 ± 0.28 | 1033.05 ± 0.27 | 1028.55 ± 0.27 | 6.141 ± 0.079 | 5.212 ± 0.074 | 4.517 ± 0.071 | 3.947 ± 0.068 | 3.482 ± 0.067
x1 = 0.8952 | 1063.47 ± 0.3 | 1059.02 ± 0.29 | 1054.56 ± 0.29 | 1050.08 ± 0.29 | 1045.6 ± 0.29 | 7.087 ± 0.086 | 6.009 ± 0.079 | 5.148 ± 0.075 | 4.447 ± 0.071 | 3.905 ± 0.069
